Target: T1, Muscarinic acetylcholine receptor M2 (Sus scrofa, UniProt P06199)
T1 sequence (P06199 whole entry): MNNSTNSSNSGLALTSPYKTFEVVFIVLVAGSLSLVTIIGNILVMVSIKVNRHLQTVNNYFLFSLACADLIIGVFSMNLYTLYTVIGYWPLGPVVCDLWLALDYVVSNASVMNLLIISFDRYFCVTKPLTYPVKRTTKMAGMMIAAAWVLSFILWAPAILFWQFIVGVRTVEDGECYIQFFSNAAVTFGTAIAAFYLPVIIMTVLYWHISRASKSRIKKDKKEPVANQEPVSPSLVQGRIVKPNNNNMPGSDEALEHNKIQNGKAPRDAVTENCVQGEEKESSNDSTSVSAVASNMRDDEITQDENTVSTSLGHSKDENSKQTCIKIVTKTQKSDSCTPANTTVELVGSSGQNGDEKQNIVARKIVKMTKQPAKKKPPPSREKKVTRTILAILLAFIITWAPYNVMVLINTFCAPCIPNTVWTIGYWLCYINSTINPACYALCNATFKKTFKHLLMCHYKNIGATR
Assay: Allosteric inhibition of [3H]NMS (N-methyl-scopolamine) dissociation from porcine cardiac Muscarinic acetylcholine receptor M2

Compound | EC50 [nM]
O=[N+]([O-])c1ccc(C[N+]23CCC45c6ccccc6N6[C@@H]7OCC=C8C[N+]9(Cc%10ccc([N+](=O)[O-])cc%10)CCC%10%11c%12ccccc%12N([C@@H]%12OCC=C(C2)[C@H](C[C@@H]43)[C@@H]%12[C@H]65)[C@H]%10[C@H]7[C@H]8C[C@@H]%119)cc1 (some centres not stated) | 315
Brc1ccc(C[N+]23CCC45c6ccccc6N6[C@@H]7OCC=C8C[N+]9(Cc%10ccc(Br)cc%10)CCC%10%11c%12ccccc%12N([C@@H]%12OCC=C(C2)[C@H](C[C@@H]43)[C@@H]%12[C@H]65)[C@H]%10[C@H]7[C@H]8C[C@@H]%119)cc1 (some centres not stated) | 507
C=CC[N+]12CCC34c5ccccc5N5[C@@H]6OCC=C7C[N+]8(CC=C)CCC9%10c%11ccccc%11N([C@@H]%11OCC=C(C1)[C@H](C[C@@H]32)[C@@H]%11[C@H]54)[C@H]9[C@H]6[C@H]7C[C@@H]%108 (some centres not stated) | 3
C#CC[N+]12CCC34c5ccccc5N5[C@@H]6OCC=C7C[N+]8(CC#C)CCC9%10c%11ccccc%11N([C@@H]%11OCC=C(C1)[C@H](C[C@@H]32)[C@@H]%11[C@H]54)[C@H]9[C@H]6[C@H]7C[C@@H]%108 (some centres not stated) | 4
CCC[N+]12CCC34c5ccccc5N5[C@@H]6OCC=C7C[N+]8(CCC)CCC9%10c%11ccccc%11N([C@@H]%11OCC=C(C1)[C@H](C[C@@H]32)[C@@H]%11[C@H]54)[C@H]9[C@H]6[C@H]7C[C@@H]%108 (some centres not stated) | 30
COc1ccc(C[N+]23CCC45c6ccccc6N6[C@@H]7OCC=C8C[N+]9(Cc%10ccc(OC)c(OC)c%10)CCC%10%11c%12ccccc%12N([C@@H]%12OCC=C(C2)[C@H](C[C@@H]43)[C@@H]%12[C@H]65)[C@H]%10[C@H]7[C@H]8C[C@@H]%119)cc1OC (some centres not stated) | 342
C1=C2C[N+]3(Cc4ccc5ccccc5c4)CCC45c6ccccc6N6[C@@H]7OCC=C8C[N+]9(Cc%10ccc%11ccccc%11c%10)CCC%10%11c%12ccccc%12N([C@H](OC1)[C@@H]([C@H]64)[C@H]2C[C@@H]53)[C@H]%10[C@H]7[C@H]8C[C@@H]%119 (some centres not stated) | 1560
C1=C2CN3CCC45c6ccccc6N6[C@@H]7OCC=C8CN9CCC%10%11c%12ccccc%12N([C@H](OC1)[C@@H]([C@H]64)[C@H]2C[C@H]35)[C@H]%10[C@H]7[C@H]8C[C@H]9%11 (some centres not stated) | 1190
O=C1c2ccccc2C(=O)N1CCC[N+]12CCC34c5ccccc5N5[C@@H]6OCC=C7C[N+]8(CCCN9C(=O)c%10ccccc%10C9=O)CCC9%10c%11ccccc%11N([C@@H]%11OCC=C(C1)[C@H](C[C@@H]32)[C@@H]%11[C@H]54)[C@H]9[C@H]6[C@H]7C[C@@H]%108 (some centres not stated) | 376
C1=C2C[N@+]3(Cc4ccccc4)CC[C@]45c6ccccc6N6[C@@H]7OCC=C8C[N@+]9(Cc%10ccccc%10)CC[C@]%10%11c%12ccccc%12N([C@H](OC1)[C@@H]([C@H]64)[C@H]2C[C@@H]53)[C@H]%10[C@H]7[C@H]8C[C@@H]%119 | 69
C[N+]12CCC34c5ccccc5N5[C@@H]6OCC=C7C[N+]8(C)CCC9%10c%11ccccc%11N([C@@H]%11OCC=C(C1)[C@H](C[C@@H]32)[C@@H]%11[C@H]54)[C@H]9[C@H]6[C@H]7C[C@@H]%108 (some centres not stated) | 8
FC(F)(F)c1ccc(C[N+]23CCC45c6ccccc6N6[C@@H]7OCC=C8C[N+]9(Cc%10ccc(C(F)(F)F)cc%10)CCC%10%11c%12ccccc%12N([C@@H]%12OCC=C(C2)[C@H](C[C@@H]43)[C@@H]%12[C@H]65)[C@H]%10[C@H]7[C@H]8C[C@@H]%119)cc1 (some centres not stated) | 1750

From ChEMBL document CHEMBL1132811, “Bisquaternary caracurine V derivatives as allosteric modulators of ligand binding to M2 acetylcholine receptors” (Bioorg Med Chem Lett, 2000)
